Assay results published in patent US11666050B2, “Enhancing the antimicrobial activity of biocides with polymers” (BASF SE, priority 2012, dated 2023).

Tests used:
Assay type in all cases: cell-based
[1] = test system: Staphylococcus aureus ATCC 6538; assay: Bactericidal activity, method EN1040 (Example 1, Table 2); settings: biocide alone; for log redn. after contact time 1 hr: contact time 1 hr; for log redn. after contact time 3 hrs: contact time 3 hrs; for log redn. after contact time 6 hrs: contact time 6 hrs; for log redn. after contact time 24 hrs: contact time 24 hrs
Text: (§1) Lines in grey shading indicate control sample (no PEI or no biocide added): […]

[2] = test system: Pseudomonas aeruginosa ATCC 15442; assay: Bactericidal activity, method EN1040 (Example 1, Table 1); settings: biocide alone; for log redn. after contact time 1 hr: contact time 1 hr; for log redn. after contact time 3 hrs: contact time 3 hrs; for log redn. after contact time 6 hrs: contact time 6 hrs; for log redn. after contact time 24 hrs: contact time 24 hrs
Text: as §1

[3] = test system: Staphylococcus aureus ATCC 6538; assay: Bactericidal activity, method EN1276 (Example 1, Table 3); settings: biocide 250 ppm a.i., no PEI (control), S. aureus ATCC 6538
Text: as §1

O=[N+]([O-])C(Br)(CO)CO [Bronopol, 2-Bromo-2-nitropropane-1,3-diol]
log redn. after contact time 1 hr ([1]; 0.1% a.i.): <1 log | log redn. after contact time 3 hrs ([1]; 0.1% a.i.): <1 log | log redn. after contact time 6 hrs ([1]; 0.1% a.i.): <1 log | log redn. after contact time 24 hrs ([1]; 0.1% a.i.): 2.4 log | log redn. after contact time 1 hr ([2]; 0.1% a.i.): <1 log | log redn. after contact time 3 hrs ([2]; 0.1% a.i.): <1 log | log redn. after contact time 6 hrs ([2]; 0.1% a.i.): 4.2 log | log redn. after contact time 24 hrs ([2]; 0.1% a.i.): 2.4 log

Oc1cc(Cl)ccc1Oc1ccc(Cl)cc1 [Tinosan® HP 100, Hydroxydichlorodiphenyl Ether]
log redn. after Contact time 5 min [3]: 4.9 log redn.

OCCOc1ccccc1 [phenoxyethanol, 2-Phenoxyethanol]
log redn. after contact time 1 hr ([1]; 1% a.i.): <1 log | log redn. after contact time 3 hrs ([1]; 1% a.i.): <1 log | log redn. after contact time 6 hrs ([1]; 1% a.i.): <1 log | log redn. after contact time 24 hrs ([1]; 1% a.i.): 1.1 log | log redn. after contact time 1 hr ([2]; 1% a.i.): <1 log | log redn. after contact time 3 hrs ([2]; 1% a.i.): 1.3 log | log redn. after contact time 6 hrs ([2]; 1% a.i.): 2.8 log | log redn. after contact time 24 hrs ([2]; 1% a.i.): >6 log
